In the supplement of paper PMC10307832:

Experiments:
Experiment in all cases: relative viability (nuclei count vs DMSO), 5 days (fraction); higher = more cells survive
[1] = compound: C1COCCN1C2=NC(=NC3=C2OC4=C3C=CC=N4)C5=CC(=CC=C5)NC(=O)C6=CN=C(C=C6)N + Cc1nc(Nc2ncc(C(=O)Nc3c(C)cccc3Cl)s2)cc(N2CCN(CCO)CC2)n1 [Dasatinib] (partner 0.075 µM)
In short: (§1)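 Medians of duplicate plates are given as relative viability. That measure is the nuclei count in treated wells divided by the count in vehicle wells. Counts were taken on 4× images of lung cancer cell lines in 1536-well plates, 5 days after pin-tool dosing the day after seeding with one drug alone or a fixed anchor-drug dose plus five library-drug doses (not always all listed) in √10 steps.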

[2] = compound: C1COCCN1C2=NC(=NC3=C2OC4=C3C=CC=N4)C5=CC(=CC=C5)NC(=O)C6=CN=C(C=C6)N + NC(=O)Nc1cc(-c2cccc(F)c2)sc1C(=O)N[C@H]1CCCNC1 [AZD7762] (partner 0.2 µM)
In short: as §1

SGI-1776 + AZD7762 = compound: CN1CCC(CNc2ccc3ncc(-c4cccc(OC(F)(F)F)c4)n3n2)CC1 [SGI-1776] + NC(=O)Nc1cc(-c2cccc(F)c2)sc1C(=O)N[C@H]1CCCNC1 [AZD7762] (partner 0.2 µM)
In short: as §1

Entinostat + Olaparib = compound: Nc1ccccc1NC(=O)c1ccc(CNC(=O)OCc2cccnc2)cc1 [Entinostat] + O=C(c1cc(Cc2n[nH]c(=O)c3ccccc23)ccc1F)N1CCN(C(=O)C2CC2)CC1 [Olaparib] (partner 8 µM)
In short: as §1

Row | Cell Line | relative viability ([1]; first compound 0.02 µM) | relative viability ([1]; first compound 0.06325 µM) | relative viability ([1]; first compound 0.2 µM) | relative viability ([1]; first compound 0.6325 µM) | relative viability ([1]; first compound 2 µM) | relative viability ([2]; first compound 0.02 µM) | relative viability ([2]; first compound 0.06325 µM) | relative viability ([2]; first compound 0.2 µM) | relative viability ([2]; first compound 0.6325 µM) | relative viability ([2]; first compound 2 µM) | relative viability (SGI-1776 + AZD7762; first compound 0.08 µM) | relative viability (SGI-1776 + AZD7762; first compound 0.8 µM) | relative viability (SGI-1776 + AZD7762; first compound 2.53 µM) | relative viability (SGI-1776 + AZD7762; first compound 8 µM) | relative viability (Entinostat + Olaparib; first compound 0.02 µM) | relative viability (Entinostat + Olaparib; first compound 0.06325 µM) | relative viability (Entinostat + Olaparib; first compound 0.2 µM) | relative viability (Entinostat + Olaparib; first compound 0.6325 µM) | relative viability (Entinostat + Olaparib; first compound 2 µM)
1 | NCI-H441 | 0.685 | 0.783 | 0.609 | 0.486 | 0.415 | 0.96 | 1.17 | 1.1 | 1.09 | 0.738 | 1.25 | 1.2 | 1.07 | 1.13 | 0.625 | 0.467 | 0.317 | 0.18 | 0.113
2 | NCI-H1915 | 0.277 | 0.329 | 0.331 | 0.349 | 0.264 | 0.72 | 0.767 | 0.716 | 0.726 | 0.664 | 0.756 | 0.663 | 0.705 | 0.791 | 0.244 | 0.274 | 0.23 | 0.21 | 0.144
3 | NCI-H1299 | – | – | – | – | – | – | – | – | – | – | – | – | – | – | 1.03 | 0.923 | 0.965 | 0.702 | 0.585
4 | HCC-827 | 0.282 | 0.294 | 0.414 | 0.233 | 0.308 | 0.191 | 0.184 | 0.167 | 0.202 | 0.198 | 0.25 | 0.26 | 0.241 | 0.146 | 0.587 | 0.623 | 0.488 | 0.322 | 0.237
5 | EMC-BAC-2 | 0.334 | 0.378 | 0.317 | 0.356 | 0.294 | 1.2 | 1.11 | 1.14 | 1.01 | 1.01 | 1.12 | 1.16 | 1.09 | 0.928 | 0.48 | 0.444 | 0.388 | 0.3 | 0.23
6 | NCI-H596 | 0.607 | 0.621 | 0.545 | 0.739 | 0.5 | 1.15 | 1.06 | 0.97 | 1.06 | 0.929 | 1.17 | 1.15 | 0.984 | 0.897 | 0.748 | 0.662 | 0.667 | 0.558 | 0.405
7 | NCI-H1792 | 0.746 | 0.79 | 0.768 | 0.464 | 1.13 | 0.593 | 0.707 | 0.509 | 0.544 | 0.386 | 0.587 | 0.786 | 0.768 | 0.438 | 0.488 | 0.358 | 0.483 | 0.133 | 0.0504
8 | NCI-H2009 | 0.245 | 0.278 | 0.215 | 0.219 | 0.215 | – | – | – | – | – | – | – | – | – | 0.673 | 0.695 | 0.639 | 0.486 | 0.434
9 | NCI-H2347 | 0.291 | 0.257 | 0.349 | 0.321 | 0.323 | 0.768 | 0.787 | 0.683 | 0.666 | 0.618 | 0.825 | 0.912 | 0.81 | 0.692 | 0.636 | 0.537 | 0.455 | 0.35 | 0.32
